# Assay results from patent US9140688B2, “Sperm staining and sorting methods” (INGURAN, LLC, priority 2011, dated 2015).
# Values joined by “and” are separate entries in the source; they are usually repeats but may differ in a detail not shown here. Identical values can stand only once. Like-named read-outs stand apart in the source and are kept apart here.
# Legend:
# [1] = test system: membrane compromised bovine sperm stained with Hoechst 33342; assay: Dead quenching: dead gate intensity divided by live gate intensity, flow cytometry of stained bovine sperm; assay type: cell-based; settings: for dead quenching capacity of split enhancing dye in combination with yellow food dye No. 6 (FIG. 8): Ex 10, Y6 25 μM; for Dead Intensity (dead gate intensity divided by live gate intensity): Ex 5; for Intensity (dead gate): Hoechst 48 μM
# Description: FIG. 4 illustrates an example bivariate plot and univariate histogram of the parameters measured during sex selection by a FACS on a flow cytometer. […] Without a dead quenching dye, both populations of sperm would overlap to a large extent, with unpredictable variations in the dead sperm.
# The entire ejaculate of sperm was suspended in first staining buffer, specifically a 7.4 pH TALP described in TABLE 1, to a concentration of 160×10^6 sperm per mL (determined on nucleocounter) and divided into three aliquots of about 20 mL into 50 mL Falcon tubes and pre-warmed for 10 minutes at 34° C. The DNA selective fluorescent dye, Hoechst 33342, was added and samples were held at 34° C. for 60 minutes. 3 different Hoechst 33342 Stain Levels were used=12 μL, 14 μL and 16 μL per 2 mL (effective concentrations of 48 μM, 56 μM, 64 μM).
# Preparation of the second buffer including the dead quenching dye—A 2 L bag of TALP, described in TABLE 1, was adjusted to pH 5.60 using HCl and then sterile filtered. […] For each of the four dyes tested (R40—red food dye No. 40, Y5—yellow food dye No. 5, Y6—yellow food dye No. 6 and PR—phenol red), an appropriate number of milligrams of each powder was placed in a Erlenmeyer Flask and then an exact amount of TALP pH 5.60 was added to create a […] concentration of the dye. The result was a working TALP stock for each dye with a 100% (125 μM) relative amount of dye 50% relative (62.5 μM) and 20% relative (25 μM) solutions were made by dilution of 100% by TALP pH 5.60.
# After this “bulk” staining for 60 minutes, 1 mL aliquots of stained sperm were combined with 1 mL aliquots of the second buffer including the dead quenching dyes. Samples sat for approximately 30 minutes at room temperature before being analyzed on a MoFlo SX (Beckman Coulter, USA) sperm sorting flow cytometer. Event rates were held as close to 13,000 as possible at the point of data acquisition.
# The total number of individual treatments was 42 tubes, each containing 2 mL of stained sample. The alignment of the sorter was established using nuclei and confirmed with live sample from the 50% Red 40 series. Once good alignment was established, each tube was placed on the sorter long enough to establish a stabile dead gate population (about 30 seconds) and then a screenshot was taken and saved as a .jpeg image. This approach of rapidly documenting each sample is used to assure the most consistent alignment between all samples. Realignment of sorter will not cause differences in the intensities of live and dead gate populations but will cause differences in split quality.
# FIG. 4 illustrates an example histogram. The ratio of dead gate intensity divided by live gate intensity is created by dividing the distance “A” by the distance “B” shown as a percentage. Lower values mean higher levels of quenching. The ratio of peak height divided by valley height is created by dividing the distance “C” by the distance “D”. A value of 1.00 means “no split” while higher values mean “better splits”. […]
# [2] = test system: X- and Y-chromosome bearing bovine sperm stained with Hoechst 33342; assay: Split quality: height of peak divided by height of valley (PV), flow cytometry of stained bovine sperm; assay type: cell-based; settings: for split enhancing effect compared to control, in words / peak to valley ratio, average 8 bulls: Ex 10; for split enhancing effect compared to control, in words: 15, 45, 125 μM, averaged over 8 bulls; for peak to valley ratio, average 8 bulls: Hoechst 64 μM; for Height of Peak/Height of Valley: Ex 5; for PV: Ex 6, resulting pH 6.70
# [3] = cited from earlier work; for Expected Absorption Maxima: solvent water
# [4] = test system: sperm; settings: background statement; cited from earlier work
# [5] = split enhancing dye 15 μM, 30 Min incubation, Y6 25 μM in second buffer
# [6] = split enhancing dye 15 μM, 45 Min, Y6 25 μM
# [7] = split enhancing dye 15 μM, 60 Min, Y6 25 μM
# [8] = split enhancing dye 15 μM, 75 Min, Y6 25 μM
# [9] = split enhancing dye 45 μM, 30 Min, Y6 25 μM
# [10] = split enhancing dye 45 μM, 45 Min, Y6 25 μM
# [11] = split enhancing dye 45 μM, 60 Min, Y6 25 μM
# [12] = split enhancing dye 45 μM, 75 Min, Y6 25 μM
# [13] = split enhancing dye 125 μM, 30 Min, Y6 25 μM
# [14] = split enhancing dye 125 μM, 45 Min, Y6 25 μM
# [15] = split enhancing dye 125 μM, 60 Min, Y6 25 μM
# [16] = split enhancing dye 125 μM, 75 Min, Y6 25 μM
# [17] = shorter-wavelength local maximum
# [18] = dye 62.5 μM, Hoechst 12 μL/2 mL
# [19] = dye 62.5 μM, Hoechst 14 μL/2 mL
# [20] = dye 62.5 μM, Hoechst 16 μL/2 mL
compound,measurement,setting,value
"Cc1c(C(=O)O)c(O)cc2c1C(=O)c1c(O)c(C3O[C@H](CO)[C@@H](O)[C@H](O)[C@H]3O)c(O)c(O)c1C2=O (stereo in doubt) [Red 4, carmine]",dead quenching capacity of split enhancing dye in combination with yellow food dye No. 6 (FIG. 8),[1],significant increase in quenching the dead subpopulation
same,"split enhancing effect compared to control, in words",[2],distinct improvements at all concentrations and at all times
same,"peak to valley ratio, average 8 bulls",[2]; [5],1.09
same,"peak to valley ratio, average 8 bulls",[2]; [6],1.44
same,"peak to valley ratio, average 8 bulls",[2]; [7],1.79
same,"peak to valley ratio, average 8 bulls",[2]; [8],1.91
same,"peak to valley ratio, average 8 bulls",[2]; [9],1.18
same,"peak to valley ratio, average 8 bulls",[2]; [10],1.50
same,"peak to valley ratio, average 8 bulls",[2]; [11],1.76
same,"peak to valley ratio, average 8 bulls",[2]; [12],1.94
same,"peak to valley ratio, average 8 bulls",[2]; [13],1.13
same,"peak to valley ratio, average 8 bulls",[2]; [14],1.45
same,"peak to valley ratio, average 8 bulls",[2]; [15],1.81
same,"peak to valley ratio, average 8 bulls",[2]; [16],1.95
same,"(local) maximum absorption wavelength, as believed","[3]; phenol red in the red molecular form, listed as red food dye No. 4",520 nm and 555 nm
same,Expected Absorption Maxima,"[3]; listed as Red 4 (natural), longer-wavelength local maximum",555 nm
same,Expected Absorption Maxima,"[3]; listed as Red 4 (natural), shorter-wavelength local maximum",520 nm
O=S(=O)([O-])c1ccc2c(N=Nc3ccc(S(=O)(=O)[O-])c4ccccc34)c(O)c(S(=O)(=O)[O-])cc2c1.[Na+].[Na+].[Na+] [Red 2],dead quenching capacity of split enhancing dye in combination with yellow food dye No. 6 (FIG. 8),[1],strong dead quenching capacity
same,"split enhancing effect compared to control, in words",[2],"did not provide a split enhancing, or noise reducing effect"
same,"peak to valley ratio, average 8 bulls",[2]; [5],1.06
same,"peak to valley ratio, average 8 bulls",[2]; [6],1.15
same,"peak to valley ratio, average 8 bulls",[2]; [7],1.54
same,"peak to valley ratio, average 8 bulls",[2]; [8],1.73
same,"peak to valley ratio, average 8 bulls",[2]; [9],1.00
same,"peak to valley ratio, average 8 bulls",[2]; [10],1.05
same,"peak to valley ratio, average 8 bulls",[2]; [11],1.12
same,"peak to valley ratio, average 8 bulls",[2]; [12],1.38
same,"peak to valley ratio, average 8 bulls",[2]; [13],1.00
same,"peak to valley ratio, average 8 bulls",[2]; [14],1.00
same,"peak to valley ratio, average 8 bulls",[2]; [15],1.00
same,"peak to valley ratio, average 8 bulls",[2]; [16],1.00
same,Expected Absorption Maxima,[3]; [17],520 nm
"O=C([O-])C1=NN(c2ccc(S(=O)(=O)[O-])cc2)C(=O)/C1=N/Nc1ccc(S(=O)(=O)[O-])cc1.[Na+].[Na+].[Na+] [Yellow 5, Trisodium (4E)-5-oxo-1-(4-sulfonatophenyl)-4-[(4-sulfonatophenyl)hydrazono]-3-pyrazolecarboxylate]",Dead Intensity (dead gate intensity divided by live gate intensity),"[1]; dye 25 μM, Average of Hoechst levels",90%
same,Dead Intensity (dead gate intensity divided by live gate intensity),"[1]; dye 25 μM, Hoechst 12 μL/2 mL",90%
same,Dead Intensity (dead gate intensity divided by live gate intensity),"[1]; dye 25 μM, Hoechst 14 μL/2 mL",90%
same,Dead Intensity (dead gate intensity divided by live gate intensity),"[1]; dye 25 μM, Hoechst 16 μL/2 mL",90%
same,Dead Intensity (dead gate intensity divided by live gate intensity),"[1]; dye 62.5 μM, Average of Hoechst levels",74%
same,Dead Intensity (dead gate intensity divided by live gate intensity),[1]; [18],74%
same,Dead Intensity (dead gate intensity divided by live gate intensity),[1]; [19],77%
same,Dead Intensity (dead gate intensity divided by live gate intensity),[1]; [20],70%
same,Dead Intensity (dead gate intensity divided by live gate intensity),"[1]; dye 125 μM, Average of Hoechst levels",57%
same,Dead Intensity (dead gate intensity divided by live gate intensity),"[1]; dye 125 μM, Hoechst 12 μL/2 mL",54%
same,Dead Intensity (dead gate intensity divided by live gate intensity),"[1]; dye 125 μM, Hoechst 14 μL/2 mL",63%
same,Dead Intensity (dead gate intensity divided by live gate intensity),"[1]; dye 125 μM, Hoechst 16 μL/2 mL",55%
same,amount of dye needed for a similar dead gate intensity ratio as red food dye No. 40 and yellow food dye No. 6,[1]; Ex 6,about five times as much
same,Intensity (dead gate),"[1]; Ex 6, dye 125 μM, resulting pH 6.70",63%
same,Intensity (dead gate),"[1]; Ex 6, dye 250 μM, resulting pH 6.70",48%
same,Intensity (dead gate),"[1]; Ex 6, dye 500 μM, resulting pH 6.70",43%
same,Intensity (dead gate),"[1]; Ex 6, dye 750 μM, resulting pH 6.70",<30%
same,Intensity (dead gate),"[1]; Ex 6, dye 875 μM, resulting pH 6.70",<30%
same,Intensity (dead gate),"[1]; Ex 6, dye 1250 μM, second buffer pH 5.60 (resulting pH 6.70)",<30%
same,Height of Peak/Height of Valley,"[2]; dye 25 μM, Average of 12 and 14 μL series",1.72
same,Height of Peak/Height of Valley,"[2]; dye 25 μM, Hoechst 12 μL/2 mL",1.90
same,Height of Peak/Height of Valley,"[2]; dye 25 μM, Hoechst 14 μL/2 mL",1.54
same,Height of Peak/Height of Valley,"[2]; dye 25 μM, Hoechst 16 μL/2 mL",1.00
same,Height of Peak/Height of Valley,"[2]; dye 62.5 μM, Average of 12 and 14 μL series",1.65
same,Height of Peak/Height of Valley,[2]; [18],1.60
same,Height of Peak/Height of Valley,[2]; [19],1.70
same,Height of Peak/Height of Valley,[2]; [20],1.00
same,Height of Peak/Height of Valley,"[2]; dye 125 μM, Average of 12 and 14 μL series",1.82
same,Height of Peak/Height of Valley,"[2]; dye 125 μM, Hoechst 12 μL/2 mL",1.72
same,Height of Peak/Height of Valley,"[2]; dye 125 μM, Hoechst 14 μL/2 mL",1.92
same,Height of Peak/Height of Valley,"[2]; dye 125 μM, Hoechst 16 μL/2 mL",1.03
same,PV,"[2]; dye 125 μM, Hoechst 48 μM",1.00
same,PV,"[2]; dye 250 μM, Hoechst 48 μM",1.00
same,PV,"[2]; dye 500 μM, Hoechst 48 μM",1.00
same,PV,"[2]; dye 750 μM, Hoechst 48 μM",1.00
same,PV,"[2]; dye 875 μM, Hoechst 48 μM",1.00
same,PV,"[2]; dye 1250 μM, Hoechst 48 μM (understained)",1.00
same,Expected Absorption Maxima,[3]; [17],422 nm
CC[N+](C)(CC)CCC[n+]1c(-c2ccccc2)c2cc(N)ccc2c2ccc(N)cc21.[I-].[I-] [propidium iodine],toxicity to sperm,[4],toxic to sperm
